Reference: patent US20240350478A1, “APPLICATION OF BENZISOQUINOLINE DIKETONE COMPOUND IN TREATMENT OF TUMOR” (NANJING SHIJIANG MEDICINE TECHNOLOGY CO., LTD, priority 2021, published 2024)
Structures can show the parent of a compound that is named as a salt.

Legend:
Format in all cases: cell-based
[1] = tested on: SF-126 (human glioblastoma multiforme cell); assay: CellTiter-Glo cell viability, SF-126; conditions: insensitive group, 3-4 days of culture, n=3
Experimental: (§1) The inhibitory effect of pixantrone maleate on various tumor cell lines was detected using cell activity detection reagent. • Cell viability was detected using the Promega CellTiter-Glo kit, cell viability was determined by directly measuring intracellular ATP content. In the experiment, the IC50 value of pixantrone maleate on various tumor cell lines was determined. Each tumor cell was cultured separately in relevant medium (+p/s), and was incubated for 3 h, then the gradient diluted pixantrone maleate was added. After 3-4 days of culture, the relevant IC50 (50% inhibiting concentration) was measured (n=3). The name, source and culture conditions of each tumor cell line were as follows: Cell line SF126 (JCRB, No. IFO50286) was cultured in 10% fetal bovine serum-containing EMEM medium (+P/S).

[2] = tested on: G-401 (human renal carcinoma Wilms cell); assay: CellTiter-Glo cell viability, G-401; conditions: sensitive group, 3-4 days of culture, n=3
Experimental: as §1, with “G-401 (ATCC,” for “SF126 (JCRB,”, “CRL-1441)” for “IFO50286)”, “McCoy's 5a” for “EMEM”

[3] = tested on: GB-1 (human glioblastoma cell); assay: CellTiter-Glo cell viability, GB-1; conditions: insensitive group, 3-4 days of culture, n=3
Experimental: as §1, with “GB-1” for “SF126”, “IFO50489)” for “IFO50286)”, “DMEM” for “EMEM”

[4] = tested on: NCI-H82 (human small cell lung cancer cell); assay: CellTiter-Glo cell viability, NCI-H82; conditions: sensitive group, 3-4 days of culture, n=3
Experimental: as §1, with “NCI-H82 (ATCC,” for “SF126 (JCRB,”, “HTB-175)” for “IFO50286)”, “RPMI1640” for “EMEM”

[5] = tested on: CFPAC-1 (human pancreatic cancer cell); assay: CellTiter-Glo cell viability, CFPAC-1; conditions: insensitive group, 3-4 days of culture, n=3
Experimental: as §1, with “CFPAC-1 (ATCC,” for “SF126 (JCRB,”, “CRL-1918)” for “IFO50286)”, “IMDM” for “EMEM”

[6] = tested on: SW48 (human colon adenocarcinoma cell); assay: CellTiter-Glo cell viability, SW48; conditions: sensitive group, 3-4 days of culture, n=3
Experimental: as §1, with “SW48 (ATCC,” for “SF126 (JCRB,”, “CCL-231)” for “IFO50286)”, “Leibovitz's L-15” for “EMEM”

[7] = tested on: 786-O (clear cell renal cell adenocarcinoma cell); assay: CellTiter-Glo cell viability, 786-O; conditions: Homo sapiens, 786-0, insensitive group, 3-4 days of culture, n=3
Experimental: as §1, with “786-0 (ATCC,” for “SF126 (JCRB,”, “CRL-1932)” for “IFO50286)”, “RPMI1640” for “EMEM”

[8] = tested on: MDA-MB-453 (breast cancer cell); assay: CellTiter-Glo cell viability, MDA-MB-453; conditions: Homo sapiens, sensitive group, 3-4 days of culture, n=3
Experimental: as §1, with “MDA-MB-453 (ATCC,” for “SF126 (JCRB,”, “HTB-131)” for “IFO50286)”, “Leibovitz's L-15” for “EMEM”

NCI-H82 (Con) cell = assay: CellTiter-Glo cell viability, control NCI-H82 (Con) cell; conditions: Homo sapiens; control NCI-H82 cell transfected with empty virus vector; n=3
From the text: (§2) The NNMT protein-overexpressing NCI-H82 cell (NCI-H82 (ov-NNMT)) was obtained by inserting the NNMT gene into NCI-H82 cell using a viral vector. The control NCI-H82 cell (NCI-H82 (Con)) was obtained by transfecting NCI-H82 cell with empty virus vector without carrying NNMT gene. The expressing level of NNMT protein in control NCI-H82 cell (NCI-H82 (Con)) and NNMT protein-overexpressing NCI-H82 cell (NCI-H82 (ov-NNMT)) was detected using Western Blot assay (as shown in FIG. 7), it could be seen from FIG. 7 that the NNMT protein in NCI-H82 (ov-NNMT) cell was overexpressed compared with the expression level of NNMT protein in NCI-H82(Con) cell. The IC50 value of pixantrone maleate on control NCI-H82 cell (NCI-H82 (Con)) and NNMT protein-overexpressing NCI-H82 cell (NCI-H82 (ov-NNMT)) was determined using Promega CellTiter-Glo kit which detected cell viability by directly measuring intracellular ATP content (n=3), the experiment result was shown in Table 4 below: […]

NCI-H82 (ov-NNMT) cell = assay: CellTiter-Glo cell viability, NNMT protein-overexpressing NCI-H82 (ov-NNMT) cell; conditions: Homo sapiens, n=3
From the text: as §2

[9] = tested on: WSU-DLCL2 (human diffuse large B-cell lymphoma); assay: CellTiter-Glo cell viability, WSU-DLCL2; conditions: WSUDLCL2, sensitive group, 3-4 days of culture, n=3
Experimental: as §1, with “WSU-DLCL2 (DSMZ,” for “SF126 (JCRB,”, “ACC-575)” for “IFO50286)”, “RPMI1640” for “EMEM”

- IC50 [1]: 5420 nM
- IC50 [2]: 290 nM
- IC50 [3]: 6560 nM
- IC50 [4]: 740 nM
- IC50 [5]: 11700 nM
- IC50 [6]: 20 nM
- IC50 [7]: 21600 nM
- IC50 [8]: 860 nM
- IC50 (NCI-H82 (Con) cell): 690 nM
- IC50 (NCI-H82 (ov-NNMT) cell): 1930 nM
- IC50 [9]: 20 nM
SMILES: NCCNc1ccc(NCCN)c2c1C(=O)c1ccncc1C2=O [Pixantrone maleate, pixantrone maleate]
